According to patent EP0567324A1, “Medicaments for treating gar-transformylase-dependent tumors” (ELI LILLY AND COMPANY, priority 1992, dated 1993):

How the values were obtained:
[1] = system: aggressive soft tissue sarcoma characterized as either a malignant Schwannoma or a tendosynovial sarcoma; settings: human, in vivo
[2] = system: adenocarcinoma originating in the ethmoid sinus; settings: human, in vivo

With `Nc1nc2c(c(=O)[nH]1)C[C@@H](CCc1ccc(C(=O)N[C@@H](CCC(=O)O)C(=O)O)cc1)CN2` [Lometrexol, 5,10-dideaza-5,6,7,8-tet-rahydrofolic acid] the “clinical response in the irradiated field” value [1] was “dramatic”, the “lometrexol retention in the patients body” value [1] was “prolonged” and the “mucositis due to the drug” value [1] was “mild mucositis”. For the same compound, the “thrombocytopenia to” value [1] was 55,000, the “tumor course after lometrexol, before radiation” value [1] was “continued to rapidly progress” and the “change of massively enlarged liver (hepatic metastases) after treatment” value [2] was “marked shrinkage”. For the same compound, the “duration of prolonged thrombocytopenia and anemia” value [2] was “over 7 weeks” and the “persistent anemia at a Hgb of” value [2] was 5.4.
